Experimental data taken from DBAASP.
Values after ≈ are worked out from the molar mass of the structure shown.

Legend:
Assay in all cases: ≥ marks a high value that may be exact or a test limit, other limits are often not marked, values filed in µg/mL are converted to µM
[1] = test system: Neisseria gonorrhoeae F62
[2] = test system: Neisseria gonorrhoeae FA19
[3] = test system: Vibrio harveyi BCRC 13812
Vibrio alginolyticus = test system: Vibrio alginolyticus
[4] = test system: Staphylococcus aureus BCRC 10780
[5] = test system: Streptococcus pneumoniae BCRC 10794
[6] = test system: Staphylococcus sp. BCRC 10451
[7] = test system: Micrococcus luteus BCRC 11034
[8] = test system: Pseudomonas aeruginosa DSM 1117
Shigella sonnei DSM 5570 = test system: Shigella sonnei DSM 5570
[9] = test system: Klebsiella pneumoniae DSM 789
[10] = test system: Candida albicans CEMTC 34
[11] = test system: Acinetobacter baumannii ATCC 19606
[12] = test system: Staphylococcus epidermidis DSM 28319
[13] = test system: Acinetobacter baumannii Al1852-ΔLpxD
[14] = test system: Candida glabrata CEMTC 2563
[15] = test system: Escherichia coli DSM 1103
[16] = test system: Acinetobacter baumannii AL1851-ΔLpxA
[17] = test system: Candida tropicalis CEMTC 2385
[18] = test system: Candida albicans ATCC 10231
[19] = test system: Salmonella enterica DSM 17058
[20] = test system: Staphylococcus aureus DSM 11729
[21] = test system: Candida parapsilosis CEMTC 2529
[22] = test system: Citrobacter freundii DSM 30029
Escherichia coli ML-35p = test system: Escherichia coli ML-35p
[23] = test system: Pseudomonas aeruginosa 447
[24] = test system: Enterobacter cloacae ATCC 13047
Candida albicans = test system: Candida albicans
[25] = test system: Enterococcus faecalis ATCC 29212
[26] = test system: Haemophilus influenzae ATCC 49247
[27] = test system: Pseudomonas aeruginosa PAO1
[28] = test system: Staphylococcus aureus ATCC 25923
[29] = test system: Haemophilus influenzae ATCC 49766
[30] = test system: Klebsiella pneumoniae ATCC 700603
Klebsiella aerogenes = test system: Klebsiella aerogenes
Staphylococcus aureus = test system: Staphylococcus aureus
[31] = test system: Klebsiella pneumoniae ATCC 13883
[32] = test system: Escherichia coli ATCC 25922
Enterobacter cloacae = test system: Enterobacter cloacae
[33] = test system: Pseudomonas aeruginosa ATCC 27853
[34] = test system: Candida albicans ATCC 2002
[35] = test system: Staphylococcus aureus ATCC 43300
Pseudomonas aeruginosa = test system: Pseudomonas aeruginosa
Escherichia coli = test system: Escherichia coli
[36] = test system: Escherichia coli ATCC 35218
[37] = test system: Staphylococcus aureus ATCC 25325
[38] = test system: Bacillus cereus ATCC 11778
[39] = test system: Pseudomonas aeruginosa ATCC 9027
[40] = test system: Staphylococcus aureus ATCC 25023

SMILES: CC(C)[C@H](NC(=O)[C@@H]1CSSC[C@H](N)C(=O)N[C@@H](Cc2ccc(O)cc2)C(=O)N[C@H]2CSSC[C@H](NC(=O)[C@H](Cc3ccccc3)NC(=O)[C@H](CCCN=C(N)N)NC(=O)[C@H](CCCN=C(N)N)NC(=O)[C@H](CCCN=C(N)N)NC2=O)C(=O)N[C@@H](C(C)C)C(=O)N1)C(N)=O [CYCRRRFCVCV]
- MIC [1]: 3.2 µM (≈ 4.49 µg/mL)
- MIC [2]: 10 µM (≈ 14 µg/mL)

SMILES: CC[C@H](C)[C@H](NC(=O)[C@H](Cc1ccccc1)NC(C)=O)C(=O)N[C@@H](Cc1ccccc1)C(=O)N[C@@H](Cc1cnc[nH]1)C(=O)N[C@H](C(=O)N[C@H](C(=O)N[C@@H](CCCCN)C(=O)NCC(=O)N[C@@H](CC(C)C)C(=O)N[C@@H](Cc1ccccc1)C(=O)N[C@@H](Cc1cnc[nH]1)C(=O)N[C@@H](C)C(=O)NCC(N)=O)[C@@H](C)CC)[C@@H](C)CC [FIFHIIKGLFHAG]
- MIC [3]: 4.17 µM (≈ 6.42 µg/mL)
- MIC (Vibrio alginolyticus): 4.17 µM (≈ 6.42 µg/mL)
- MIC [4]: 4.17 µM (≈ 6.42 µg/mL)
- MIC [5]: 16.7 µM (≈ 25.7 µg/mL)
- MIC [6]: 4.17 µM (≈ 6.42 µg/mL)
- MIC [7]: ≥ 33.3 µM

SMILES: NCCCC[C@H](NC(=O)[C@H](Cc1ccccc1)NC(=O)[C@H](Cc1ccccc1)NC(=O)[C@H](CCCCN)NC(=O)[C@H](Cc1ccccc1)NC(=O)[C@H](Cc1ccccc1)NC(=O)[C@H](CCCCN)NC(=O)[C@H](Cc1ccccc1)NC(=O)[C@H](Cc1ccccc1)NC(=O)[C@@H](N)CCCCN)C(N)=O [KFFKFFKFFK]
- MIC [8]: 1 µM (≈ 1.41 µg/mL)
- MIC (Shigella sonnei DSM 5570): 2 µM (≈ 2.83 µg/mL)
- MIC [9]: ≥ 32 µM
- MIC [10]: 20 µM (≈ 28.3 µg/mL)
- MIC [11]: 32 µM (≈ 45.2 µg/mL)
- MIC [12]: 0.5 µM (≈ 0.706 µg/mL)
- MIC [13]: ≥ 32 µM
- MIC [14]: 20 µM (≈ 28.3 µg/mL)
- MIC [15]: 2 µM (≈ 2.83 µg/mL)
- MIC [16]: 16 µM (≈ 22.6 µg/mL)
- MIC [17]: 10 µM (≈ 14.1 µg/mL)
- MIC [18]: 20 µM (≈ 28.3 µg/mL)
- MIC [19]: 16 µM (≈ 22.6 µg/mL)
- MIC [20]: 16 µM (≈ 22.6 µg/mL)
- MIC [21]: 20 µM (≈ 28.3 µg/mL)
- MIC [22]: 4 µM (≈ 5.65 µg/mL)

SMILES: CC[C@H](C)[C@H](NC(=O)[C@@H](NC(=O)[C@H](CCCN=C(N)N)NC(=O)[C@@H]1CCCN1C(=O)[C@H](CCCCN)NC(=O)[C@H](CCCCN)NC(=O)[C@H](Cc1ccccc1)NC(=O)[C@H](Cc1ccccc1)NC(=O)[C@H](CCCCN)NC(=O)[C@H](CCCCN)NC(=O)[C@H](C)NC(=O)[C@H](CCCN=C(N)N)NC(=O)[C@H](CCCCN)NC(=O)[C@H](CCCCN)NC(=O)[C@@H](NC(=O)[C@H](CO)NC(=O)[C@H](CC(N)=O)NC(=O)[C@H](CCCCN)NC(=O)[C@H](CC(C)C)NC(=O)[C@H](CCCCN)NC(=O)[C@H](CCCCN)NC(=O)[C@H](Cc1ccccc1)NC(=O)[C@H](Cc1ccccc1)NC(=O)[C@@H](N)CCCCN)C(C)C)C(C)C)C(=O)NCC(=O)N[C@H](C(=O)N[C@@H](CO)C(=O)N[C@H](C(=O)N1CCC[C@H]1C(=O)N[C@@H](Cc1ccccc1)C(=O)O)[C@@H](C)CC)C(C)C [KFFKKLKNSVKKRAKKFFKKPRVIGVSIPF]
- MIC (Escherichia coli ML-35p): 0.869 µM (≈ 3.13 µg/mL)
- MIC [23]: 1.74 µM (≈ 6.25 µg/mL)
- MIC [24]: 6.95 µM (≈ 25 µg/mL)
- MIC (Candida albicans): > 55.6 µM
- MIC [25]: 6.95 µM (≈ 25 µg/mL)
- MIC [26]: 0.869 µM (≈ 3.13 µg/mL)
- MIC [27]: 1.74 µM (≈ 6.25 µg/mL)
- MIC [28]: 0.869 µM (≈ 3.13 µg/mL)
- MIC [29]: 0.869 µM (≈ 3.13 µg/mL)
- MIC [30]: 0.869 µM (≈ 3.13 µg/mL)
- MIC (Klebsiella aerogenes): 1.74 µM (≈ 6.25 µg/mL)
- MIC (Staphylococcus aureus): 1.74 µM (≈ 6.25 µg/mL)
- MIC [31]: 1.74 µM (≈ 6.25 µg/mL)
- MIC [32]: 1.74 µM (≈ 6.25 µg/mL)
- MIC (Enterobacter cloacae): 0.869 µM (≈ 3.13 µg/mL)
- MIC [33]: 1.74 µM (≈ 6.25 µg/mL)
- MIC [34]: ≥ 55.6 µM
- MIC [35]: 1.74 µM (≈ 6.25 µg/mL)
- MIC (Pseudomonas aeruginosa): 3.48 µM (≈ 12.5 µg/mL)
- MIC (Escherichia coli): 1.74 µM (≈ 6.25 µg/mL)

SMILES: CC(C)C[C@H](NC(=O)CNC(=O)[C@@H](NC(=O)[C@H](Cc1cnc[nH]1)NC(=O)[C@H](CCCCN)NC(=O)[C@H](CC(C)C)NC(=O)[C@@H](N)CCCCN)C(C)C)C(=O)N[C@@H](Cc1cnc[nH]1)C(=O)N[C@H](C(=O)NCC(=O)N[C@@H](CCCCN)C(=O)N[C@@H](CC(C)C)C(=O)N[C@@H](CCCCN)C(=O)O)C(C)C [KLKHVGLHVGKLK]
- MIC [36]: ≥ 43.4 µM
- MIC [25]: 52.3 µM (≈ 76.2 µg/mL)
- MIC [37]: ≥ 40.2 µM
- MIC [33]: 56 µM (≈ 81.6 µg/mL)

SMILES: CC(C)C[C@H](NC(=O)[C@@H](NC(=O)[C@H](CCCCN)NC(=O)[C@H](CCCCN)NC(=O)[C@H](CC(C)C)NC(=O)[C@@H](N)CC(C)C)C(C)C)C(=O)N[C@@H](CCCCN)C(=O)N[C@@H](C)C(=O)N[C@@H](C)C(=O)N[C@@H](C)C(N)=O [LLKKVLKAAA]
- MIC [36]: ≥ 50 µM
- MIC [38]: ≥ 50 µM
- MIC [28]: > 50 µM
- MIC [39]: > 50 µM

SMILES: CC(C)C[C@H](NC(=O)[C@H](CCCN=C(N)N)NC(=O)[C@H](CC(C)C)NC(=O)[C@H](CC(C)C)NC(=O)[C@H](CC(C)C)NC(=O)[C@H](CC(C)C)NC(=O)[C@H](CC(C)C)NC(=O)[C@H](CCCCN)NC(=O)[C@H](Cc1c[nH]c2ccccc12)NC(=O)[C@@H](N)CCCN=C(N)N)C(N)=O [RWKLLLLLRL]
- MIC [40]: 1.51 µM (≈ 2 µg/mL)
